We go through two compounds from patent US7507860B2 (Pfizer Inc., priority 2004, dated 2009).

For this assay, the target named is T1, human androgen receptor (hAR) (Homo sapiens, UniProt P10275).
T1 construct: made in house; host or cells: baculovirus/Sf9 insect cells (crude extract)
T1 sequence (P10275 1-920): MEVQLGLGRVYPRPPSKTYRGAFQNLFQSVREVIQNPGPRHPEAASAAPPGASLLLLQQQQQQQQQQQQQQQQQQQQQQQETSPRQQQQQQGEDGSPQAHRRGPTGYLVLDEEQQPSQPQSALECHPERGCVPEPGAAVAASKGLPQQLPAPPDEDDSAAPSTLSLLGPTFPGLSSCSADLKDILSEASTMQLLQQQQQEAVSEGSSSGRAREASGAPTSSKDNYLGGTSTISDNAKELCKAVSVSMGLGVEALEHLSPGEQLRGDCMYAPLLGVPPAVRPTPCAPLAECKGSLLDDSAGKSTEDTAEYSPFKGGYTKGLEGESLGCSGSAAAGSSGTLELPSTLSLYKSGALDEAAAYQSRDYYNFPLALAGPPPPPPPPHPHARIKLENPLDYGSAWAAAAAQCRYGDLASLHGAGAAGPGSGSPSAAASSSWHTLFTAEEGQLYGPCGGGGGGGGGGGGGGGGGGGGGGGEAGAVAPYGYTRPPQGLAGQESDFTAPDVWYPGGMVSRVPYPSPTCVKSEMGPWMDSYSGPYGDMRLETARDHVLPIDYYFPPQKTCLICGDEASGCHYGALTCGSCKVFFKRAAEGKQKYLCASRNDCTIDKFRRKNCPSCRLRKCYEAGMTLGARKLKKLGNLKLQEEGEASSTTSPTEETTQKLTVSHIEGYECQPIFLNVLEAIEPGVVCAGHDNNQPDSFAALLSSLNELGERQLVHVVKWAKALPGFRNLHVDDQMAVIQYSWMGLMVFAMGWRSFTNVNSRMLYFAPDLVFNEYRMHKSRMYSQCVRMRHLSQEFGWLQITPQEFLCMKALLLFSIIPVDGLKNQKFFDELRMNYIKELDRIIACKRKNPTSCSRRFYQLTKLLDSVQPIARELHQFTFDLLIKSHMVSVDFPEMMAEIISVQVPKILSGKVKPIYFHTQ
The assay is described as follows: Competitive binding analysis on baculovirus/Sf9 generated hAR extracts with 3H-DHT tracer. Conditions: AR Binding IC50 (nM), hAR extract, 1 nM 3H-DHT, one hour at 4° C; mean of multiple tests. In outline:
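Baculovirus/Sf9-expressed hAR extract incubated with hydroxylapatite, 1 nM 3H-DHT and decreasing compound concentrations for 1 h at 4 °C, then washed three times to remove unbound tracer. Bound 3H-DHT compared with no-competitor maximum; affinity given as concentration inhibiting half of maximum binding, mean of multiple tests.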

A word on the IC50: it is the concentration that inhibits the measured activity by half. `CC(C)CC(Oc1ccc(C#N)c(C(F)(F)F)c1)C(=O)NCc1ccccc1` (centres unmarked) [Example 1, 2-(4-Cyano-3-trifluoromethyl-phenoxy)-4-methyl-pentanoic acid benzylamide]: the IC50 came to 95 nM.
In the case of `CCCC(Oc1ccc(C#N)c(C(F)(F)F)c1)C(=O)NCc1ccccc1` (centres unmarked) [Example 4, 2-(4-Cyano-3-trifluoromethyl-phenoxy)-pentanoic acid benzylamide] it was 445 nM.
